According to ChEMBL document CHEMBL2069232, “Novel structural insights for imidoselenocarbamates with antitumoral activity related to their ability to generate methylselenol” (Bioorg Med Chem, 2012):
Activity calls are given as the source filed them. No cut-off for these calls is given here. Numbered stars: 1 amine (or outer) side, 2 acyl side, 3 side chain; on linkers, the order of the positions; unused ones are H or OH. Bridge positions count the residues as written; N and C are the ends. Square brackets hold non-standard residues; d marks the D form. Peptide text beside a SMILES is read from it. I, II: the chains in the order shown. Actinocin(1to9) = Cc1c2oc3c(C)ccc(C(=O)[*:2])c3nc-2c(C(=O)[*:1])c(N)c1=O; NMeV = CN[C@H](C(=O)O)C(C)C; Sar = CNCC(=O)O

Assays:
[1] = tested on: NCI-H157; experiment: Induction of apoptosis in human NCI-H157 cells assessed as live cell level at 10 uM incubated for 5 hrs in serum-free medium by annexin V/propidium iodide staining by flow cytometry; format: functional, cell-based
[2] = tested on: NCI-H157; experiment: Induction of apoptosis in human NCI-H157 cells assessed as apoptotic cell level at 10 uM incubated for 5 hrs in serum-free medium by annexin V/propidium iodide staining by flow cytometry; format: functional
[3] = tested on: NCI-H157; experiment: Induction of apoptosis in human NCI-H157 cells assessed as necrotic cell level at 10 uM incubated for 5 hrs in serum-free medium by annexin V/propidium iodide staining by flow cytometry; format: functional
[4] = tested on: NCI-H157; experiment: Induction of apoptosis in human NCI-H157 cells assessed as damaged cell level at 10 uM incubated for 5 hrs in serum-free medium by annexin V/propidium iodide staining by flow cytometry; format: functional
[5] = Induction of methylselenol release in phenol-red free RPMI 1640 medium containing 100 uM DTNB; format: physicochemical
[6] = Induction of methylselenol release in pH 8.0 phosphate buffer containing 100 mM Na2PO4, 1 mM EDTA and 100 uM DTNB; format: physicochemical
[7] = tested on: NCI-H157; experiment: Induction of apoptosis in human NCI-H157 cells at 10 uM incubated for 5 hrs in serum-free medium by annexin V/propidium iodide staining by flow cytometry; format: functional, cell-based

SMILES | Activity [1] | Activity [2] [%] | Activity [3] [%] | Activity [4] [%] | t1/2 [5] [h] | t1/2 [6] [h] | Activity [7]
Cc1c2oc3c(C)ccc(C(=O)N[C@@H]4C(=O)N[C@H](C(C)C)C(=O)N5CCC[C@H]5C(=O)N(C)CC(=O)N(C)[C@@H](C(C)C)C(=O)O[C@@H]4C)c3nc-2c(C(=O)N[C@@H]2C(=O)N[C@H](C(C)C)C(=O)N3CCC[C@H]3C(=O)N(C)CC(=O)N(C)[C@@H](C(C)C)C(=O)O[C@@H]2C)c(N)c1=O [DACTINOMYCIN] (I: T[dV]P[Sar][NMeV] / II: T[dV]P[Sar][NMeV]; ester I:1-I:C, II:1-II:C; linker I:N-II:N via Actinocin(1to9)) | Active | 9 | 3 | 23 |  |  | 
C[Se]/C(=N/C(C)=O)NC(C)=O |  |  |  |  | 0.82 | 9.2 | Active
C[Se]/C(=N\C(=O)c1ccccc1)NC(=O)c1ccccc1 |  |  |  |  |  |  | inactive
CS/C(=N/C(=O)c1cccnc1)NC(=O)c1cccnc1 |  |  |  |  | 24 | 1333 | 
C[Se]/C(=N/C(=O)c1cccnc1Cl)NC(=O)c1cccnc1Cl |  |  |  |  | 4.7 | 40 | Active
C[Se]/C(=N\C(=O)c1ccc(C)cc1)NC(=O)c1ccc(C)cc1 |  |  |  |  |  |  | inactive
C[Se]/C(=N\C(=O)c1ccc(C(F)(F)F)cc1)NC(=O)c1ccc(C(F)(F)F)cc1 |  |  |  |  |  |  | inactive
CS/C(=N/C(=O)c1cccnc1Cl)NC(=O)c1cccnc1Cl |  |  |  |  | 31 | 917 | 
C[Se]/C(=N/C(=O)c1cccnc1)NC(=O)c1cccnc1 | Active | 11 | 5 | 28 | 2.9 | 26 | Active
COc1ccc(C(=O)/N=C(\NC(=O)c2ccc(OC)cc2OC)[Se]C)c(OC)c1 |  |  |  |  |  |  | inactive
